# US7906618B2, “Peptide capable of binding to insulin-binding protein and adsorbent” (Kaneka Corporation, priority 2004, dated 2011)
# Ends that are not written are not given here.
# Molecular target: T1, Recombinant Human Insulin Receptor (28-956) (soluble insulin receptor, SIR) (Homo sapiens, UniProt P06213)
# T1 construct: Recombinant Human Insulin Receptor (28-956); purchased GT/TECHNE Corp
# Test: BIAcore determination of peptide-SIR binding (peptide immobilized on sensor chip CM5, soluble insulin receptor as analyte)
# Details: sensor chip CM5, amine coupling, HBS-EP buffer, SIR 100 nM to 0.781 nM, flow 10 μl/min; for koff: read-out: Dissociation rate constant (peptide-SIR)
# Experimental: The affinity for the soluble insulin receptor identified by SEQ ID NO:1 is compared by the method using BIAcore (BIAcore AB) (as described in Am. J. Physiol. 272 (1997) E1089-1098). Briefly, a solution of the soluble insulin receptor is brought into contact with the surface of the ready-made sensor chip with the peptide defined by SEQ ID NO:1 as immobilized thereon, and the interaction is measured.
# The dissociation constant (KD) of the peptide P14 obtained in Example 3 was determined using BIAcore upgrade (Biacore AB) and the analysis software BIA evaluation version 3.0 (Biacore AB).
# (§1) The ligand was immobilized on the sensor chip CM5 research grade (Biacore AB) by the amine coupling method. Thus, the peptide mentioned above was dissolved in 20 mM carbonate buffer (pH 8.5) (500 μg/ml), and 100 μl of the solution was passed through the flow cell at a flow rate of 5 μl/min. The amount of the peptide immobilized was 200 RU (resonance units).
# Recombinant Human Insulin Receptor (28-956) (GT/TECHNE Corp.) was used as the analyte soluble insulin receptor (SIR). To 50 mg in a vial was added HBS-EP buffer (250 ml) for thorough dissolution ([…]), and the solution was 10-fold diluted to give a 100 nM solution. Eight concentration levels from 100 nM to 0.781 nM were prepared by subsequent repetitions of doubling dilution, and measurements were carried out using HBS-EP buffer (10 mM HEPES pH 7.4, 0.15M NaCl, 3 mM EDTA, 0.005% Surfactant P20) (Biacore AB) as a running solution; the rate of flow was 10 μl/min. A sensorgram was thus obtained.
# The dissociation constant (KD) of the peptide P15 obtained in Example 6 was determined using BIAcore upgrade (Biacore AB) and the analysis software BIA evaluation version 3.0 (Biacore AB).
# as §1, with “130 RU.” for “200 RU (resonance units).”
# Recombinant Human Insulin Receptor (28-956) (GT/TECHNE Corp.) was used as the analyte SIR. Eight concentration levels from 100 nM to 0.781 nM were prepared by subsequent repetitions of doubling dilution, which was started from diluting 100 nM solution, and measurements were carried out using HBS-EP buffer as a running solution; the rate of flow was 10 μl/min. A sensorgram was thus obtained.
# The dissociation constant (KD) of the peptide P21 obtained in Example 7 was determined using BIAcore upgrade (Biacore AB) and the analysis software BIA evaluation version 3.0 (Biacore AB).
# as §1, with “270 RU.” for “200 RU (resonance units).”
# T1 sequence (P06213 28-956): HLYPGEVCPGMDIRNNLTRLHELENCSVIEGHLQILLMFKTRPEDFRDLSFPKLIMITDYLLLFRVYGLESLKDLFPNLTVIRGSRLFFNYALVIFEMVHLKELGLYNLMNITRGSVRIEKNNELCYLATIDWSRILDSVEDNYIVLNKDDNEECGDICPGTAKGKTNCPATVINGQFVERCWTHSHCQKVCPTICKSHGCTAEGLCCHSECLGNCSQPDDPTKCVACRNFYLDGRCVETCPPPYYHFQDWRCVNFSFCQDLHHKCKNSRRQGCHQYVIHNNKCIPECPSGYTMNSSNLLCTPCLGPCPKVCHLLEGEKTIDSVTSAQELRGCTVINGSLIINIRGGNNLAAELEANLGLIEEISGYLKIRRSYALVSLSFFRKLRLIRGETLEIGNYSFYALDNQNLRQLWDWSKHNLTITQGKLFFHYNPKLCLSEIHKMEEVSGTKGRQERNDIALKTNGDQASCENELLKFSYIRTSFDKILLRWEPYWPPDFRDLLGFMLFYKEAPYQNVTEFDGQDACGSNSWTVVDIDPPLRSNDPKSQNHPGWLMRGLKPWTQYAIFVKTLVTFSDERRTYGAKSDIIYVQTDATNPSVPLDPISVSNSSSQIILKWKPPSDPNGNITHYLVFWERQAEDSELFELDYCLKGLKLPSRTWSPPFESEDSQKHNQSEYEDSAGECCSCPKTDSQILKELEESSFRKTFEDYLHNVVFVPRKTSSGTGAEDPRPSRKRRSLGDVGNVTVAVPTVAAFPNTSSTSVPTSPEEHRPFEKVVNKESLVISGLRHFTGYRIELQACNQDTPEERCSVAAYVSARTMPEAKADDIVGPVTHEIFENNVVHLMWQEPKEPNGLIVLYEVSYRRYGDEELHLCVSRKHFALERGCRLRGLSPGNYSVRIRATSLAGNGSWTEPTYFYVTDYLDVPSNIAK
Sequence,Binding rate constant (peptide-SIR),koff [s⁻¹]
"CASDIVEGIYL [Peptide P15, CASDIVEGIYL]",8.6E+02,0.02
"CASDIVEGLYIVLAER [Peptide P14, CASDIVEGLYIVLAER]",9.7E+03,0.015
"CQHILGSDIVEGIYL [Peptide P21, CQHILGSDIVEGIYL]",5.1E+04,0.6
